Laboratory results published in patent US4068001A, “Method of medical treatment of pancreatic insufficiency” (priority 1976, dated 1978).

Legend:
rats = assay: Teratogenesis test in rats; format: in vivo, rat; details: rats, 6, 60, 600 mg/Kg/day
[1] = Overall conclusion of acute, subacute, chronic toxicity and teratogenesis tests; format: in vivo; details: conclusion from all toxicity tests
Description: (§1) In order to evaluate the acute toxicity of a single high dose administration of Coenzyme Q10, male and female rats of Wistar strain and male and female mice of ICR-JCL strain were used, and oral, intramuscular, subcutaneous, and intravenous administrations were studied. For the oral administration of Coenzyme Q10, a gum Arabic suspension was used. For the intramuscular, subcutaneous and intravenous administrations, Coenzyme Q10 was used as a solution containing a nonionic surfactant, Nikkol HCO-60 . Nikkol HCO-60 is a trade mark of a non-ionic surfacent comprised of hydrogenated castor oil/polyoxyethylene-60 mole ether available from Nikko Chemicals, Co. Ltd., Japan.
(§2) Observation was carried out for 7 days by using six males and six females for each dose group.
(§3) Coenzyme Q10 was compulsorily and orally administered every day for 5 weeks to each group consisting of 10 male rats and 10 female rats of Wistar strain. The dose was 40, 200, and 1000 mg/Kg/day, respectively. Coenzyme Q10 was used in the form of gum Arabic suspension, while the solution containing gum Arabic alone was used as the control group. Collection of blood and urine samples and autopsies were carried out 5 weeks after the initiation of administration.
Coenzyme Q10 was compulsorily and orally administered every day for 23 days to each group consisting of six male rabbits and five female rabbits. […]

[2] = tested on: pancreas external secretion; assay: Quantity of pancreatic juice secreted after pancreozymin in anesthetized rats; format: in vivo, rat (male Wistar)
Experimental: (§4) Male Wistar rats weighing 300-400 g were fasted for 14-20 hours and then anesthetized with 1 g/Kg of urethane. A stainless steel tube was inserted into the common bile duct at the opening to the duodenum and fixed thereto (pancreatic cannula) to take out pancreatic juice. The common bile duct was ligated at an upper portion and a polyethylene tube was inserted into the bile duct and fixed thereto to allow the bile to flow outward. The pylorus was ligated. The medicament was administered into a femoral vein through the polyethylene tube.
(§5) The quantity of the pancreatic juice was measured by using a calibrated silicone rubber tube fitted to the pancreatic duct cannula. The tube was changed every 10 minutes.
(§6) Coenzyme Q10 was solubilized in water with Nikkol HCO-60 before use. An aqueous solution of Nikkol HCO-60 was used as placebo.
(§7) Coenzyme Q10 (3 mg/100 g body weight) and the placebo were administered to the rats through the femoral vein. After 60 minutes, pancreozymin (0.2 Crick, Harper and Raper unit/100 g body weight) was administered through the femoral vein.
(§8) FIGS. 1 and 2 show the quantities of pancreatic juice secreted when placebo was administered and when Coenzyme Q10 was administered, respectively. In FIGS. 1 and 2, the ordinates represent the quantity of the pancreatic juice secreted (μl/min./100 g body weight) and the abscissae represent time (min.). FIGS. 3 and 4 show the quantities of amylase secreted when placebo was administered and when Coenzyme Q10 was administered, respectively. In FIGS. 3 and 4, the ordinates represent quantity of amylase secreted (unit/min./100 g body weight) and the abscissae represent time (min.). In FIGS. 1-4, the values are average values ± standard deviation. The arrows in the figures indicate the times when Coenzyme Q10, placebo and pancreozymin were administered.

mice = assay: Teratogenesis test in mice; format: in vivo, mouse; details: mice, 6, 60, 600 mg/Kg/day
rabbits = assay: Subacute oral toxicity test in rabbits (23 days); format: in vivo, rabbit
Experimental: Coenzyme Q10 was compulsorily and orally administered every day for 23 days to each group consisting of six male rabbits and five female rabbits. The dose was 6, 60 and 600 mg/Kg/day, respectively. Coenzyme Q10 was used in the form of gum Arabic suspension, whereas the solution containing gum Arabic alone was used as the control group, On the 24th day, blood samples were collected from all the animals, and three males and two females from each group were then selectively autopsied.

mice of ICR-JCL strain = assay: Acute toxicity test in mice (single high dose); format: in vivo, mouse (ICR-JCL strain)
Description: as §1, §2

rats of Wistar strain [3] = assay: Subacute oral toxicity test in rats (5 weeks); format: in vivo, rat (Wistar strain)
Experimental: as §3

rats of Wistar strain [4] = assay: Acute toxicity test in rats (single high dose); format: in vivo, rat (Wistar strain)
Description: as §1, §2

rats of Wistar strain [5] = assay: Chronic oral toxicity test in rats (26 weeks); format: in vivo, rat (Wistar strain)
Experimental: Coenzyme Q10 was compulsorily and orally administered to each group consisting of 10 male rats and 10 female rats of Wistar strain for consecutive 26 weeks in a ratio of 6 days a week. The dose was 6, 60 and 600 mg/Kg/day, respectively. Coenzyme Q10 was used in the form of gum Arabic suspension, whereas the solution containing gum Arabic alone is used as the control group. Collection of blood and urine samples and autopsies were carried out 26 weeks after the administration.

[6] = Solubility of Coenzyme Q10 (properties); format: physicochemical
Description: Coenzymes Q used in the present invention, for example, Coenzyme Q10 (the compound in which n = 10 in the above formula), can be mainly obtained synthetically, although it is possible to extract Coenzyme Q from animal organs. The physical and chemical properties of Coenzyme Q10 produced synthetically are as follows.

[7] = tested on: amylase of the pancreatic juice; assay: Quantity of amylase secreted in pancreatic juice after pancreozymin in anesthetized rats; format: in vivo, rat (male Wistar)
Experimental: as §4, §5
Amylase activity of the pancreatic juice was determined by Kanno's method [Journal of Physiology (London) Vol. 245, P. 599 (1975)]. One amylase unit indicates a unit of amylase activity producing 1 mg of maltose by incubation of 37° C for 5 minutes.
as §6, §7, §8

[8] = 3 mg/100 g femoral vein, after pancreozymin
[9] = 10 minutes after pancreozymin, Coenzyme Q10 3 mg/100 g i.v. (femoral vein) 60 minutes before
[10] = 6, 60, 600 mg/Kg/day oral, 23 days
[11] = any administration group, 7 days
[12] = intramuscular, Nikkol HCO-60 solution, single dose, 7 days
[13] = intravenous, Nikkol HCO-60 solution, single dose, 7 days
[14] = maximum dose in each administration route
[15] = oral, gum Arabic suspension, single dose, 7 days observation
[16] = relative to maximum doses of Table 1
[17] = subcutaneous, Nikkol HCO-60 solution, single dose, 7 days
[18] = 40, 200, 1000 mg/Kg/day oral, 5 weeks
[19] = 6, 60, 600 mg/Kg/day oral, 26 weeks
[20] = spontaneous pneumonia and aspiration pneumonia due to erroneous administration, dose group not stated

COC1=C(OC)C(=O)C(C/C=C(\C)CC/C=C(\C)CC/C=C(\C)CC/C=C(\C)CC/C=C(\C)CC/C=C(\C)CC/C=C(\C)CC/C=C(\C)CC/C=C(\C)CCC=C(C)C)=C(C)C1=O [Coenzyme Q10]
adverse effects in mothers, fetuses and newborns (rats): no adverse effects were noted
overall safety [1]: a very safe drug, without side-effects
fourth response, quantity of pancreatic juice, P versus placebo [2, 8]: < 0.05
quantity of pancreatic juice secreted, comparison with placebo group [2, 8]: significantly superior
second response, quantity of pancreatic juice, P versus placebo [2, 8]: < 0.02
third response, quantity of pancreatic juice, P versus placebo [2, 8]: < 0.02
first response, quantity of pancreatic juice secreted, ratio to placebo group [2, 9]: about 1.5 times
adverse effects in mothers, fetuses and newborns (mice): no adverse effects were noted
general condition and increase of body weight versus control group (rabbits; [10]): no difference
hematological test and biochemical test of blood (rabbits; [10]): Abnormal findings were not obtained
weight of each organ (rabbits; [10]): no effect on the weight of each organ
electron-microscopic observation of liver (rabbits; 7th, 14th and 24th days): there were not recognized abnormal findings on the minute structure of the liver
macroscopical and histological observation (rabbits; hematoxylin-eosine staining and liver fat staining): abnormalities were not recognized
toxicity (conclusion) (rabbits; oral, 23 days): there were not recognized the findings wherein the toxicity of Coenzyme Q10 will be suggested
acute toxicity (conclusion) (mice of ICR-JCL strain): extremely low
general condition, body weight, food intake, autopsy findings (mice of ICR-JCL strain; [11]): no change was recognized
Maximum dose (no case of deaths), intramuscular (mice of ICR-JCL strain; [12]): 500 mg/kg
Maximum dose (no case of deaths), intravenous (mice of ICR-JCL strain; [13]): 250 mg/kg
deaths (mice of ICR-JCL strain; [14]): no case of deaths
Maximum dose (no case of deaths), oral (mice of ICR-JCL strain; [15]): 4000 mg/kg
LD50 (mice of ICR-JCL strain; [16]): far higher than the maximum dose mentioned above
Maximum dose (no case of deaths), subcutaneous (mice of ICR-JCL strain; [17]): 500 mg/kg
general condition and body weight versus control group (rats of Wistar strain [3]; [18]): no difference
hematological test and biochemical test of blood and urine (rats of Wistar strain [3]; [18]): No significant change was recognized
weight of each organ (rats of Wistar strain [3]; [18]): no significant change
macroscopical and histological observation (rats of Wistar strain [3]; hematoxylin-eosine staining and liver fat staining, 5 weeks): abnormality was not recognized
toxicity (conclusion) (rats of Wistar strain [3]; oral, 5 weeks): there was not recognized the toxicity seemingly due to the administration
dead animals during the experiment (rats of Wistar strain [3]; spontaneous pneumonia and aspiration pneumonia due to error of administration, dose group not stated): four
acute toxicity (conclusion) (rats of Wistar strain [4]): extremely low
general condition, body weight, food intake, autopsy findings (rats of Wistar strain [4]; [11]): no change was recognized
Maximum dose (no case of deaths), intramuscular (rats of Wistar strain [4]; [12]): 500 mg/kg
Maximum dose (no case of deaths), intravenous (rats of Wistar strain [4]; [13]): 250 mg/kg
deaths (rats of Wistar strain [4]; [14]): no case of deaths
Maximum dose (no case of deaths), oral (rats of Wistar strain [4]; [15]): 4000 mg/kg
LD50 (rats of Wistar strain [4]; [16]): far higher than the maximum dose mentioned above
Maximum dose (no case of deaths), subcutaneous (rats of Wistar strain [4]; [17]): 500 mg/kg
body weight (rats of Wistar strain [5]; [19]): increased the same as that of the control group
general condition versus control group (rats of Wistar strain [5]; [19]): no difference
weights of organs (rats of Wistar strain [5]; 26 weeks): no significant increase and decrease
leukocytal percentages (rats of Wistar strain [5]; hematological findings, 26 weeks): some increase and decrease, but do not provide the mutual relation depending upon the dose; the percentages being within the range of physiological fluctuations
macroscopical and histological observation (rats of Wistar strain [5]; hematoxylin-eosine staining and liver fat staining, versus control group): abnormalities were not recognized
toxicity (conclusion) (rats of Wistar strain [5]; oral, 26 weeks): no toxicity was observed
deaths, females (rats of Wistar strain [5]; [20]): three
deaths, males (rats of Wistar strain [5]; [20]): 11 males
biochemical tests of blood and urine (rats of Wistar strain [5]; versus control group, 26 weeks): No significant changes were recognized
solubility in acetone ([6]; acetone): soluble
solubility in benzene ([6]; benzene): easily soluble
solubility in carbon tetrachloride ([6]; carbon tetrachloride): easily soluble
solubility in chloroform ([6]; chloroform): easily soluble
solubility in ethanol ([6]; ethanol): insoluble
solubility in ether ([6]; ether): soluble
solubility in methanol ([6]; methanol): hardly soluble
solubility in water ([6]; water): hardly soluble
second through fourth responses, quantity of amylase, P versus placebo ([7]; 3 mg/100 g femoral vein, after pancreozymin, all cases): higher than 0.05
first response, quantity of amylase secreted, ratio to placebo group [7, 9]: about 1.6 times
quantity of amylase secreted, comparison with placebo group ([7]; second through fourth responses, 3 mg/100 g femoral vein, after pancreozymin): significantly superior
